According to US10112937B2, “P2X7 modulators and methods of use” (Janssen Pharmaceutica NV, priority 2013, dated 2018):

Columns and labels:
human P2X7 = human P2X7 (Homo sapiens (Human), UniProt Q99572); test: P2X7 antagonism in human PBMCs (IL-1β release after LPS + Bz-ATP, ELISA); type: cell-based; conditions: for PBMC 1 μM (% control): test compound 1 μM
rat P2X7 = rat P2X7 (Rattus norvegicus (Rat), UniProt Q64663); test: Ca2+ flux (FLIPR) in 1321N1 cells expressing recombinant rat P2X7; type: cell-based;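 note: Calcium-4 dye fluorescence change read 180 s after agonist addition, with cells preincubated 30 min with compound and dye in 96-well plates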
[1] = human PBMCs, test compound 10 μM
[2] = 1321N1 cells, recombinant rat P2X7, 250 μM BzATP
[3] = 10 μM test compound, human PBMCs, LPS + Bz-ATP

Sequence of rat P2X7 (Q64663 whole entry): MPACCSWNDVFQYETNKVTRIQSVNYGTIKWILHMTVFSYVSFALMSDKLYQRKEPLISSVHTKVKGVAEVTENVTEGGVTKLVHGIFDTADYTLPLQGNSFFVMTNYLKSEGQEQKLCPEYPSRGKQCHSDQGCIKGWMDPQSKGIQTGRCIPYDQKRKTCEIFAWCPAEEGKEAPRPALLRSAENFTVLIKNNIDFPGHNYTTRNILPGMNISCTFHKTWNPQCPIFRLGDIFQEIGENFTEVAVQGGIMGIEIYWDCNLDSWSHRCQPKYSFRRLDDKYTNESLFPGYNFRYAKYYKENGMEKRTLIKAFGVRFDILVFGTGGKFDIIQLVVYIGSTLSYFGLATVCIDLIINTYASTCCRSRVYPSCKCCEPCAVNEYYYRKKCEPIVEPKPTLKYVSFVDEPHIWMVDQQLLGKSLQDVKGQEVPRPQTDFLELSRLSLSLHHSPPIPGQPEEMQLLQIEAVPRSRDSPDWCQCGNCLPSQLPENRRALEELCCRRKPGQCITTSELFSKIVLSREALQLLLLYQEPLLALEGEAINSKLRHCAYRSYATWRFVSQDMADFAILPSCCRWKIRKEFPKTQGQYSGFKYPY
Sequence of human P2X7 (Q99572 whole entry): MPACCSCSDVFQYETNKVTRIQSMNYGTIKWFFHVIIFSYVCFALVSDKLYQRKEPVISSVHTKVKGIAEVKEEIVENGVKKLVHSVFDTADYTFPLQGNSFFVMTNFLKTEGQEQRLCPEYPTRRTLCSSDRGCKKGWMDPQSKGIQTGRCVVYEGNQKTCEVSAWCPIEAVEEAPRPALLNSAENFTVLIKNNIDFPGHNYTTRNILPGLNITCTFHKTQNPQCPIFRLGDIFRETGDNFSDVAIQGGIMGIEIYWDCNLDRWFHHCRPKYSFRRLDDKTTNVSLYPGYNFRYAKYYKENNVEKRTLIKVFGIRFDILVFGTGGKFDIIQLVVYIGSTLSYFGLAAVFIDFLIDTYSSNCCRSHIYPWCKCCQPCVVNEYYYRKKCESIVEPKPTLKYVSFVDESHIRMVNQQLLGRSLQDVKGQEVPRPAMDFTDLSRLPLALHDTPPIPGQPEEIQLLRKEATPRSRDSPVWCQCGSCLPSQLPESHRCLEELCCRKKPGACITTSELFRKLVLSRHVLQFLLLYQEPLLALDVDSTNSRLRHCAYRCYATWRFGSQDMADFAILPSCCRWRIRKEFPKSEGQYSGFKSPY

PBMC 10 μM (% control) (human P2X7; [1]) | PBMC 10 μM (% control) (human P2X7; [3]) | Structure (SMILES) | further results
42.4 | – | Cc1ccnc(-n2nnc3c2CCN(C(=O)c2ccnc(C(F)(F)F)c2F)[C@H]3C)c1 (single isomer, unassigned) [Example 357, (S*)-(3-fluoro-2-(trifluoromethyl)pyridin-4-yl)(4-methyl-1-(4-methylpyridin-2-yl)-6,7-dihydro-1H-[1,2,3]triazolo[4,5-c]pyridin-5(4H)-yl)methanone] | IC50 (rat P2X7; [2]): 16.2 µM
−11.0 | – | Cc1nc2c(n1-c1ccccc1)CCN(C(=O)c1cccc(Cl)c1Cl)C2 [Example 331, (2,3-dichlorophenyl)(2-methyl-1-phenyl-6,7-dihydro-1H-imidazo[4,5-c]pyridin-5(4H)-yl)methanone] | –
−9.5 | – | CCc1nc2c(n1-c1ccccc1)CCN(C(=O)c1cccc(Cl)c1Cl)C2 [Example 332, (2,3-dichlorophenyl)(2-ethyl-1-phenyl-6,7-dihydro-1H-imidazo[4,5-c]pyridin-5(4H)-yl)methanone] | –
6.9 | – | C[C@H]1c2nnn(-c3cncnc3)c2CCN1C(=O)c1cccc(C(F)(F)F)c1Cl [Example 333, (S)-(2-chloro-3-(trifluoromethyl)phenyl)(4-methyl-1-(pyrimidin-5-yl)-6,7-dihydro-1H-[1,2,3]triazolo[4,5-c]pyridin-5(4H)-yl)methanone] | –
−0.5 | – | Cc1ccc(-n2nnc3c2CCN(C(=O)c2cccc(Cl)c2Cl)C3C)nc1 (stereo not drawn) [Example 336, (2,3-dichlorophenyl)(4-methyl-1-(5-methylpyridin-2-yl)-6,7-dihydro-1H-[1,2,3]triazolo[4,5-c]pyridin-5(4H)-yl)methanone] | –
−0.7 | – | Cc1ccnc(-n2nnc3c2CCN(C(=O)c2ccnc(C(F)(F)F)c2Cl)C3C)c1 (stereo not drawn) [Example 358, (3-chloro-2-(trifluoromethyl)pyridin-4-yl)(4-methyl-1-(4-methylpyridin-2-yl)-6,7-dihydro-1H-[1,2,3]triazolo[4,5-c]pyridin-5(4H)-yl)methanone] | –
64.7 | – | Cc1cc(-n2nnc3c2CCN(C(=O)c2ccnc(C(F)(F)F)c2F)C3C)ncn1 (stereo not drawn) [Example 397, (3-fluoro-2-(trifluoromethyl)pyridin-4-yl)(4-methyl-1-(6-methylpyrimidin-4-yl)-6,7-dihydro-1H-[1,2,3]triazolo[4,5-c]pyridin-5(4H)-yl)methanone] | –
82.0 | – | Cc1nccc(-n2nnc3c2CCN(C(=O)c2ccnc(C(F)(F)F)c2F)C3C)n1 (stereo not drawn) [Example 401, (3-fluoro-2-(trifluoromethyl)pyridin-4-yl)(4-methyl-1-(2-methylpyrimidin-4-yl)-6,7-dihydro-1H-[1,2,3]triazolo[4,5-c]pyridin-5(4H)-yl)methanone] | –
– | −3.1 | CCn1ccc(-n2nnc3c2C[C@H](C)N(C(=O)c2cccc(C(F)(F)F)c2Cl)C3)n1 [Example 404, (S)-(2-chloro-3-(trifluoromethyl)phenyl)(1-(1-ethyl-1H-pyrazol-3-yl)-6-methyl-6,7-dihydro-1H-[1,2,3]triazolo[4,5-c]pyridin-5(4H)-yl)methanone] | –
– | −3.6 | CCn1nccc1-n1nnc2c1C[C@H](C)N(C(=O)c1cccc(C(F)(F)F)c1Cl)C2 [Example 406, (S)-(2-chloro-3-(trifluoromethyl)phenyl)(1-(1-ethyl-1H-pyrazol-5-yl)-6-methyl-6,7-dihydro-1H-[1,2,3]triazolo[4,5-c]pyridin-5(4H)-yl)methanone] | –
– | 77.4 | CCn1nccc1-n1nnc2c1CCN(C(=O)c1cccc(C(F)(F)F)c1Cl)[C@H]2C [Example 407, (S)-(2-chloro-3-(trifluoromethyl)phenyl)(1-(1-ethyl-1H-pyrazol-5-yl)-4-methyl-6,7-dihydro-1H-[1,2,3]triazolo[4,5-c]pyridin-5(4H)-yl)methanone] | –
– | 69.6 | CCn1ccc(-n2nnc3c2CCN(C(=O)c2ccnc(C(F)(F)F)c2Cl)[C@H]3C)n1 [Example 411, (S)-(3-chloro-2-(trifluoromethyl)pyridin-4-yl)(1-(1-ethyl-1H-pyrazol-3-yl)-4-methyl-6,7-dihydro-1H-[1,2,3]triazolo[4,5-c]pyridin-5(4H)-yl)methanone] | –
– | 68.5 | CC(C)n1ccc(-n2nnc3c2CCN(C(=O)c2cccc(C(F)(F)F)c2Cl)[C@H]3C)n1 [Example 413, (S)-(2-chloro-3-(trifluoromethyl)phenyl)(1-(1-isopropyl-1H-pyrazol-3-yl)-4-methyl-6,7-dihydro-1H-[1,2,3]triazolo[4,5-c]pyridin-5(4H)-yl)methanone] | –
– | 112.2 | CC(C)n1ccc(-n2nnc3c2CCN(C(=O)c2ccnc(C(F)(F)F)c2Cl)[C@H]3C)n1 [Example 417, (S)-(3-chloro-2-(trifluoromethyl)pyridin-4-yl)(1-(1-isopropyl-1H-pyrazol-3-yl)-4-methyl-6,7-dihydro-1H-[1,2,3]triazolo[4,5-c]pyridin-5(4H)-yl)methanone] | –

Continued, compound first:

Structure (SMILES) | PBMC 10 μM (% control) (human P2X7; [1]) | PBMC 10 μM (% control) (human P2X7; [3]) | further results
Cc1nc(-n2nnc3c2CCN(C(=O)c2cccc(C(F)(F)F)c2Cl)C3C)ncc1F (single isomer, unassigned) [Example 306, (S*)-(2-chloro-3-(trifluoromethyl)phenyl)(1-(5-fluoro-4-methylpyrimidin-2-yl)-4-methyl-6,7-dihydro-1H-[1,2,3]triazolo[4,5-c]pyridin-5(4H)-yl)methanone] | 2.5 | – | PBMC 10 μM (% control) (human P2X7; test compound 10 μM, LPS 30 ng/ml + 0.5 mM Bz-ATP): 2.5 % control; IC50 (rat P2X7; 250 μM BzATP, Calcium-4 dye): 5.98 µM; IC50 (rat P2X7; [2]): 5.98 µM
Cc1ccnc(-n2nnc3c2CCN(C(=O)c2ccnc(C(F)(F)F)c2F)[C@@H]3C)c1 (single isomer, unassigned) [Example 356, (R*)-(3-fluoro-2-(trifluoromethyl)pyridin-4-yl)(4-methyl-1-(4-methylpyridin-2-yl)-6,7-dihydro-1H-[1,2,3]triazolo[4,5-c]pyridin-5(4H)-yl)methanone] | −5.9 | – | IC50 (rat P2X7; [2]): 0.12 µM
CC1c2ncn(-c3cnccn3)c2CCN1C(=O)c1cccc(C(F)(F)F)c1F (stereo not drawn) [Example 14, (2-Fluoro-3-(trifluoromethyl)phenyl)(4-methyl-1-(pyrazin-2-yl)-6,7-dihydro-1H-imidazo[4,5-c]pyridin-5(4H)-yl)methanone] | – | – | IC50 (rat P2X7; [2]): 0.122 µM
CCOC(=O)C1c2ncn(-c3ccccc3)c2CCN1C(=O)c1cccc(Cl)c1Cl (stereo not drawn) [Example 27, Ethyl 5-(2,3-dichlorobenzoyl)-1-phenyl-4,5,6,7-tetrahydro-1H-imidazo[4,5-c]pyridine-4-carboxylate] | – | – | IC50 (rat P2X7; [2]): 2.81 µM
CN(C)CC1c2ncn(-c3ccccn3)c2CCN1C(=O)c1cccc(C(F)(F)F)c1Cl (stereo not drawn) [Example 31, 1-(5-{[2-Chloro-3-(trifluoromethyl)phenyl]carbonyl}-1-pyridin-2-yl-4,5,6,7-tetrahydro-1H-imidazo[4,5-c]pyridin-4-yl)-N,N-dimethylmethanamine] | – | – | IC50 (rat P2X7; [2]): 0.333 µM
CN(C)C(=O)C1c2ncn(-c3ccccn3)c2CCN1C(=O)c1cccc(C(F)(F)F)c1Cl (stereo not drawn) [Example 34, 5-{[2-Chloro-3-(trifluoromethyl)phenyl]carbonyl}-N,N-dimethyl-1-pyridin-2-yl-4,5,6,7-tetrahydro-1H-imidazo[4,5-c]pyridine-4-carboxamide] | – | – | IC50 (rat P2X7; [2]): 0.279 µM
O=C(c1cccc(C(F)(F)F)c1Cl)N1CCc2c(nnn2-c2ccccn2)C1 [Example 63, 5-{[2-Chloro-3-(trifluoromethyl)phenyl]carbonyl}-1-pyridin-2-yl-4,5,6,7-tetrahydro-1H-[1,2,3]triazolo[4,5-c]pyridine] | – | – | IC50 (rat P2X7; [2]): 1.45 µM
Cn1nc2c(c1-c1ccc(F)cc1)CCN(C(=O)c1cccc(Cl)c1Cl)C2 [Example 326, (2,3-dichlorophenyl)(3-(4-fluorophenyl)-2-methyl-4,5-dihydro-2H-pyrazolo[3,4-c]pyridin-6(7H)-yl)methanone] | – | – | PBMC 1 μM (% control) (human P2X7; human PBMCs): 92.0 % control
Cn1nc2c(c1-c1ccncc1)CCN(C(=O)c1cccc(Cl)c1Cl)C2 [Example 328, (2,3-dichlorophenyl)(2-methyl-3-(pyridin-4-yl)-4,5-dihydro-2H-pyrazolo[3,4-c]pyridin-6(7H)-yl)methanone] | – | – | PBMC 1 μM (% control) (human P2X7; human PBMCs): 88.0 % control
CCn1ccc(-n2nnc3c2C[C@H](C)N(C(=O)c2ccnc(C(F)(F)F)c2F)C3)n1 [Example 408, (S)-(1-(1-ethyl-1H-pyrazol-3-yl)-6-methyl-6,7-dihydro-1H-[1,2,3]triazolo[4,5-c]pyridin-5(4H)-yl)(3-fluoro-2-(trifluoromethyl)pyridin-4-yl)methanone] | – | 53.6 | –
CCn1ccc(-n2nnc3c2C[C@H](C)N(C(=O)c2ccnc(C(F)(F)F)c2Cl)C3)n1 [Example 410, (S)-(3-chloro-2-(trifluoromethyl)pyridin-4-yl)(1-(1-ethyl-1H-pyrazol-3-yl)-6-methyl-6,7-dihydro-1H-[1,2,3]triazolo[4,5-c]pyridin-5(4H)-yl)methanone] | – | −1.5 | –
CC(C)n1ccc(-n2nnc3c2C[C@H](C)N(C(=O)c2ccnc(C(F)(F)F)c2F)C3)n1 [Example 418, (S)-(3-fluoro-2-(trifluoromethyl)pyridin-4-yl)(1-(1-isopropyl-1H-pyrazol-3-yl)-6-methyl-6,7-dihydro-1H-[1,2,3]triazolo[4,5-c]pyridin-5(4H)-yl)methanone] | – | 97.6 | –
C[C@H]1Cc2c(nnn2-c2ccsc2)CN1C(=O)c1cccc(C(F)(F)F)c1Cl [Example 420, (S)-(2-chloro-3-(trifluoromethyl)phenyl)(6-methyl-1-(thiophen-3-yl)-6,7-dihydro-1H-[1,2,3]triazolo[4,5-c]pyridin-5(4H)-yl)methanone] | – | 0.0 | –
C[C@H]1Cc2c(nnn2-c2ncc(O)cn2)CN1C(=O)c1ccnc(C(F)(F)F)c1F [Example 429, (S)-(3-fluoro-2-(trifluoromethyl)pyridin-4-yl)(1-(5-hydroxypyrimidin-2-yl)-6-methyl-6,7-dihydro-1H-[1,2,3]triazolo[4,5-c]pyridin-5(4H)-yl)methanone] | – | 2.3 | –
